The record followed here is ChEMBL document CHEMBL1201862, “PubChem BioAssay data set” (2004).

Common to all, as to test: growth of human tumour cells (NCI), 48 h
Experiment [1] relates to SK-MEL-5.
Experiment [2] has as its system NCI-H23.
In experiment [3] the test system is LOX IMVI.
In experiment [4] the test system is SF-539.
In experiment [5] the test system is SK-MEL-28.
In experiment [6] the test system is HOP-62.
Experiment [7] concerns M14.
The subject of experiment [8] is UO-31.
Experiment [9] has as its system MDA-MB-231.
Experiment [10] has as its system SF-295.
Experiment [11] deals with MDA-N.
Experiment [12] has as its system TK-10.
The subject of experiment [13] is NCI-H226.
Experiment [14] has as its system U-251.
For experiment [15], the system named is BT-549.
Experiment [16] has as its system DU-145.
The subject of experiment [17] is ACHN.
The subject of experiment [18] is SNB-19.
Experiment [19] relates to COLO 205.
The test system of experiment [20] is NCI-H522.

SMILES strings stand for the structures.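 A five-concentration, 48-hour dose response in 96-well plates underlies each endpoint, interpolated linearly between surrounding concentrations. At the GI50, growth is halved.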 Calls of active or inactive are those of the source. Rule as the data show it: active = GI50 up to about 1.1 µM and inactive = higher. Bounds are passed on as bounds.

For the compound `Cc1ccccc1NC(=O)Cc1csc2[n+]1C(=O)/C(=C/c1ccc([N+](=O)[O-])cc1)S2`, the GI50 in experiment [1] was 27.4 µM (inactive); in experiment [2], 23.9 µM (inactive); in [3], 38.5 µM (inactive); in experiment [4] it was 29 µM (inactive); in experiment [5], 37.7 µM (inactive); in experiment [6], 33.5 µM (inactive). Moreover, the GI50 in experiment [7] was 32.2 µM (inactive); in experiment [8] it was 18.4 µM (inactive); in [9], 37.5 µM (inactive); in [10], 31.8 µM (inactive); in experiment [11] it was 37.2 µM (inactive); in experiment [12], 19.9 µM (inactive). For the same compound, the GI50 in [13] is 31.2 µM (inactive); in experiment [14], 29.7 µM (inactive); in experiment [15], 13 µM (inactive); in [16], 53.8 µM (inactive); in [17], 24.2 µM (inactive); in [18] it was 26.4 µM (inactive). Besides, the GI50 in experiment [19] is 36 µM (inactive).
For `CC(C)CCNC(=O)C(CC(C)C)NC(=O)[C@H]1O[C@@H]1C(=O)O` (stereo partly drawn), the GI50 in experiment [1], in [2], in [4], in experiment [5], in experiment [6] and in experiment [7] was > 100 µM (inactive) in each case. Also, the GI50 in [8], in experiment [9], in experiment [10], in [11], in experiment [13] and in experiment [14] was > 100 µM (inactive) each time. For the same compound, the GI50 in experiment [15], in [16], in [18], in [20] and in experiment [19] was > 100 µM (inactive) in each case.
Consider `ClCCN(CCCl)c1ccc(/C=N/Nc2ccnc3ccccc23)cc1`, for which the GI50 is 1.66 µM (inactive) in experiment [1]; 2.01 µM (inactive) in [2]; 1.44 µM (inactive) in [3]; 1.41 µM (inactive) in experiment [4]; 1.63 µM (inactive) in experiment [5]; 2.07 µM (inactive) in [6]. The GI50 in [7] is 2.02 µM (inactive); in experiment [8], 1.86 µM (inactive); in experiment [9], 1.89 µM (inactive); in experiment [10], 1.31 µM (inactive); in [12], 1.52 µM (inactive); in [13] it was 1.89 µM (inactive). For the same compound, the GI50 is 1.48 µM (inactive) in [14]; 2 µM (inactive) in experiment [15]; 1.8 µM (inactive) in experiment [16]; 1.84 µM (inactive) in [17]; 2.33 µM (inactive) in [18]; 1.83 µM (inactive) in experiment [20]. Also, the GI50 in experiment [19] was 1.86 µM (inactive).
Turning to `COC(=O)C1CCC(=S)N1C(=O)c1ccccc1` (stereo not drawn), the GI50 in experiment [1], in [2], in experiment [5], in [6], in experiment [7] and in experiment [8] was > 100 µM (inactive) throughout. The GI50 in experiment [9], in experiment [10], in experiment [11], in experiment [12], in experiment [14] and in experiment [15] was > 100 µM (inactive) throughout. The GI50 in [16], in [17], in [18], in experiment [20] and in [19] was > 100 µM (inactive) in each case.
Turning to `CSc1ccc(/C=C2\N=C(c3ccccc3)N(/N=C/c3cc4cc(C)ccc4nc3Cl)C2=O)cc1`, the GI50 in experiment [1] is 16.1 µM (inactive); in experiment [3], 18.6 µM (inactive); in experiment [4] it was 16.5 µM (inactive); in experiment [5], 18.2 µM (inactive); in experiment [6] it was 33.2 µM (inactive); in [7], 16.7 µM (inactive). In addition, the GI50 in experiment [8] is 15 µM (inactive); in experiment [9], 19.6 µM (inactive); in [10], 17.9 µM (inactive); in experiment [11], 14.4 µM (inactive); in experiment [12], 16.9 µM (inactive); in experiment [14], 20 µM (inactive). Moreover, the GI50 is 22.8 µM (inactive) in [15]; 17.8 µM (inactive) in experiment [16]; 16.3 µM (inactive) in experiment [17]; 16.7 µM (inactive) in experiment [18]; 16.7 µM (inactive) in experiment [19].
Consider `N[C@@H]1CCN(c2c(F)cc3c(=O)c(C(=O)O)cn4c3c2Oc2c-4ccc3c2ccc2ccccc23)C1`, for which the GI50 was 1.44 µM (inactive) in experiment [1]; 3.1 µM (inactive) in experiment [2]; 1.68 µM (inactive) in experiment [3]; 3.01 µM (inactive) in experiment [4]; > 100 µM (inactive) in [5]; 1.38 µM (inactive) in [6]. Moreover, the GI50 in [7] was 5.55 µM (inactive); in [8] it was 3.24 µM (inactive); in experiment [10] it was 1.92 µM (inactive); in experiment [11], 1.55 µM (inactive); in [12], 2.38 µM (inactive); in [13], 19.9 µM (inactive). In addition, the GI50 in experiment [14] was 0.571 µM (active); in [15], > 100 µM (inactive); in experiment [16], 3.81 µM (inactive); in experiment [17], 0.305 µM (active); in [18], 0.344 µM (active); in experiment [20], 3.18 µM (inactive). Besides, the GI50 in experiment [19] was 2.99 µM (inactive).
As to `O=[N+]([O-])c1ccc(N2N=C(c3c(O)ccc4ccccc34)CC2c2ccc(Cl)cc2)c([N+](=O)[O-])c1` (stereo not drawn), the GI50 is 20.4 µM (inactive) in experiment [1]; 19.1 µM (inactive) in [2]; 30.1 µM (inactive) in experiment [4]; 46.9 µM (inactive) in experiment [5]; 24.4 µM (inactive) in experiment [6]; 18.5 µM (inactive) in [7]. Besides, the GI50 was 17.9 µM (inactive) in experiment [8]; 23.8 µM (inactive) in [9]; 4.59 µM (inactive) in experiment [10]; 33.1 µM (inactive) in experiment [11]; 41 µM (inactive) in [12]; 20.9 µM (inactive) in [13]. The GI50 in [14] was 30 µM (inactive); in experiment [15], 32.5 µM (inactive); in experiment [16], 19.5 µM (inactive); in [17] it was 27.4 µM (inactive); in experiment [20] it was 31.5 µM (inactive); in experiment [19] it was 16.1 µM (inactive).
Regarding `CCCCn1c(N)c(-c2nc3ccccc3o2)sc1=S`, the GI50 in experiment [1] was 14 µM (inactive); in experiment [2], 15.6 µM (inactive); in experiment [4] it was 10.1 µM (inactive); in [5], 18.8 µM (inactive); in experiment [6] it was 21.5 µM (inactive); in experiment [7], 23 µM (inactive). Besides, the GI50 in experiment [8] is 20 µM (inactive); in [9], 16.8 µM (inactive); in experiment [10], 12.6 µM (inactive); in [11] it was 15.6 µM (inactive); in [12], 18.3 µM (inactive); in experiment [13], 15.7 µM (inactive). In addition, the GI50 is 15.9 µM (inactive) in experiment [14]; 26.3 µM (inactive) in experiment [15]; 12.4 µM (inactive) in experiment [16]; 10.3 µM (inactive) in experiment [17]; 41.3 µM (inactive) in experiment [18]; 14.2 µM (inactive) in experiment [20]. In addition, the GI50 in [19] is 29.4 µM (inactive).
As for `CC1(C)CC2(C)CC1CC2(O)c1ccccc1` (stereo not drawn), the GI50 in [1], in experiment [2], in experiment [4], in experiment [5], in experiment [6] and in experiment [7] was > 100 µM (inactive) each time. Besides, the GI50 in experiment [8], in experiment [9], in [10], in [11], in experiment [12] and in [13] was > 100 µM (inactive) throughout. The GI50 in experiment [14], in experiment [15], in experiment [16], in [17], in experiment [18] and in experiment [20] was > 100 µM (inactive) each time. The GI50 in [19] was > 100 µM (inactive).
For the compound `O=C(N/N=C/c1ccc(Cl)cc1)c1c(Cl)c(Cl)c(Cl)c(Cl)c1-c1nc2ccccc2[nH]1`, the GI50 in [1] is 49 µM (inactive); in [2], > 100 µM (inactive); in experiment [3] it was 41.1 µM (inactive); in [4], > 100 µM (inactive); in [5], > 100 µM (inactive); in experiment [6], 0.0452 µM (active). The GI50 in experiment [7] is 86.5 µM (inactive); in [8], 86.9 µM (inactive); in [10], 0.0405 µM (active); in experiment [11], 56.8 µM (inactive); in experiment [13], 0.224 µM (active); in experiment [15], > 100 µM (inactive). Besides, the GI50 in experiment [16] is > 100 µM (inactive); in experiment [17], 64.6 µM (inactive); in experiment [18], > 100 µM (inactive); in experiment [20] it was 55.7 µM (inactive); in [19] it was > 100 µM (inactive).
As to `Cc1nc2c(c(N3CCN(C)CC3)n1)Cc1ccccc1-2`, the GI50 was 51.2 µM (inactive) in experiment [1]; 57.8 µM (inactive) in experiment [2]; 84.7 µM (inactive) in experiment [4]; 50.9 µM (inactive) in experiment [7]; 15 µM (inactive) in experiment [8]; 37.8 µM (inactive) in experiment [9]. Further, the GI50 in experiment [10] was 42.4 µM (inactive); in experiment [11] it was 58.5 µM (inactive); in experiment [12] it was 31.4 µM (inactive); in experiment [13], 45.8 µM (inactive); in experiment [14] it was 75.3 µM (inactive); in experiment [15] it was 24.3 µM (inactive). Besides, the GI50 in [16] was > 100 µM (inactive); in experiment [17] it was 34.2 µM (inactive); in experiment [18], 24.9 µM (inactive); in [20], 16.9 µM (inactive); in [19] it was 37.3 µM (inactive).
